Measurements published in PMC2504292 (Nucleic Acids Research, 2008).

T1: PARN RRM (cap-binding domain of mouse PARN, residues 430-516) (Mus musculus, UniProt Q8VDG3)
T1 sequence (Q8VDG3 430-516): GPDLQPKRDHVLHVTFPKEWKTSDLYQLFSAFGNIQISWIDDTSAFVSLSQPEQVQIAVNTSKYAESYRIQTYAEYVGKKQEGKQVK

T2: PARN RRM (cap-binding domain), NMR/ITC construct (mouse, UniProt Q8VDG3 430-516)
T2 sequence: T1 sequence (Q8VDG3 430-516)


Experiments:
[1] = target: T1, PARN RRM (cap-binding domain of mouse PARN, residues 430-516); test: isothermal titration calorimetry
[2] = target: T2, PARN RRM (cap-binding domain), NMR/ITC …; test: NMR HSQC titration

Kd [1] [µM]	Molecule	binding result [2]
~45	C[n+]1cn([C@@H]2O[C@H](COP(=O)(O)OP(=O)(O)OP(=O)(O)OC[C@H]3O[C@@H](n4cnc5c(=O)[nH]c(N)nc54)[C@H](O)[C@@H]3O)[C@@H](O)[C@H]2O)c2nc(N)[nH]c(=O)c21 [m7GpppG]	–
–	AAAAAAAAAA (ssRNA) [A10 10-mer poly(A)]	no binding
